According to patent publication US20260347355A1, “COMPOUNDS” (Hoffmann-La Roche Inc., priority 2023, published 2026):

Key:
NLRP3 [1] = target: T1, NLRP3 (Homo sapiens, UniProt Q96P20); experiment: Human whole blood IL-1β release assay (LPS, nigericin; AlphaLISA); assay type: cell-based; parameters: Human whole blood in Li-heparin tubes was obtained from healthy donors from a volunteer donor panel; from tissue; host or cells: human whole blood from healthy volunteer donors; settings: 1 μg/ml LPS, 10 μM nigericin, 3 h compound pre-incubation
Description: Human Whole Blood IL-1β Release Assay
For systemic delivery, the ability to inhibit NLRP3 when the compounds are present within the bloodstream is of great importance. For this reason, the NLRP3 inhibitory activity of a number of compounds in human whole blood was investigated in accordance with the following protocol.
Human whole blood in Li-heparin tubes was obtained from healthy donors from a volunteer donor panel.
(§1) Incubate for 3 hours at 37 °C, 5% CO2
Add 10 μl nigericin (Sigma #N7143) (10 μM FAC) to all wells
(§2) Incubate for 1 hr at 37 °C, 5% CO2
At the end of the incubation period, spin plates at 300×g for 5 mins to pellet cells and remove 20 μl of supernatant and add to 96-well v-bottom plates for IL-1β analysis (note: these plates containing the supernatants can be stored at −80 °C to be analysed at a later date)
IL-1β was measured according to the manufacturer protocol (Perkin Elmer-AlphaLisa IL-1 Kit AL220F-5000)
(§3) IC50 data is fitted to a non-linear regression equation (log inhibitor vs response-variable slope 4-parameters)

NLRP3 [2] = target: T1, NLRP3; experiment: THP-1 cells pyroptosis assay (LPS primed, nigericin stimulated, resazurin readout); assay type: cell-based; parameters: endogenous in cells; host or cells: THP-1 cells (ATCC TIB-202); settings: THP-1 pyroptosis Assay IC50, THP-1 cells, 1 μg/ml LPS, 5 μM nigericin, 3 h compound pre-incubation
Description: Therefore, it is anticipated that inhibitors of NLRP3 will block pyroptosis, as well as the release of pro-inflammatory cytokines (e.g. IL-1β) from the cell.
THP-1 Cells: Culture and Preparation
The cells were routinely passaged and grown to confluency (~10^6cells/ml). On the day of the experiment, THP-1 cells were harvested and resuspended into RPMI medium (without FBS). […] To this diluted cell solution was added LPS (Sigma #L4524) to give a 1 μg/ml Final Assay Concentration (FAC). 40 μl of the final preparation was aliquoted into each well of a 96-well plate. The plate thus prepared was used for compound screening.
THP-1 Cells Pyroptosis Assay
The following method step-by-step assay was followed for compound screening.
as §1
Add 5 μl nigericin (Sigma #N7143) (FAC 5 μM) to all wells
as §2
At the end of the incubation period, spin plates at 300×g for 3 mins and remove supernatant
Then add 50 μl of resazurin (Sigma #R7017) (FAC 100 μM resazurin in RPMI medium without FBS) and incubate plates for a further 1-2 hours at 37 °C and 5% CO2
as §3

[3] = target: T2, human ether-i-go-go-related gene (hERG) cardiac potassium channel (Homo sapiens, UniProt Q12809); experiment: hERG screening assay (automated patch clamp, CHO crelox hERG cells); assay type: cell-based; settings: SynchroPatch 384, 35-37 °C, 0.1 Hz, read-out: hERG inhibition IC20
T2 construct: whole-cell automated patch clamp, SynchroPatch 384, 35-37 °C
Description: In the drug development process of small molecules, one of the most frequent adverse side effects, leading to the failure of drugs, is the cardiac arrhythmias. Such failure is often related to the capacity of the drug to inhibit the human ether-i-go-go-related gene (hERG) cardiac potassium channel. Having no or low inhibition of the hERG cardiac potassium channel is therefore considered as beneficial.
The CHO crelox hERG cell line (ATCC reference Nr. PTA-6812, female Chinese hamster cells) was generated and validated at Roche. Ready-to-use frozen instant CHO-hERG cells were cryopreserved at Evotec (Germany) and used directly in the experiments.
The extracellular solution contains (in mM): NaCl 150; KCl 4; CaCl2 1; MgCl2 1; HEPES 10; pH 7.2-7.4 with NaOH, osmolarity 290-330 mOsm. […]
The effects of a compound on hERG K+-currents parameters will be evaluated at 2 concentrations in at least 4 cells.
The hERG test is performed using automated patch clamp system SynchroPatch® 384 (Nanion Technologies GmbH, Germany). K+ currents are measured with the patch-voltage-clamp technique in the whole-cell configuration at 35-37 °C. […]
The amplitudes of IKhERG were recorded in each concentration of drug and they were compared to the vehicle control values (taken as 100%) to define fractional blocks. […]

NLRP3 [4] = target: T1, NLRP3; parameters: THP-1 cells (ATCC #TIB-202) were grown in RPMI; endogenous in cells; host or cells: THP-1 cells (ATCC TIB-202); settings: cited from earlier work
NLRC4 = settings: cited from earlier work
NLRP1 = settings: cited from earlier work
CAPS = settings: biologic agents that target IL-1; cited from earlier work

T1 sequence (Q96P20 whole entry): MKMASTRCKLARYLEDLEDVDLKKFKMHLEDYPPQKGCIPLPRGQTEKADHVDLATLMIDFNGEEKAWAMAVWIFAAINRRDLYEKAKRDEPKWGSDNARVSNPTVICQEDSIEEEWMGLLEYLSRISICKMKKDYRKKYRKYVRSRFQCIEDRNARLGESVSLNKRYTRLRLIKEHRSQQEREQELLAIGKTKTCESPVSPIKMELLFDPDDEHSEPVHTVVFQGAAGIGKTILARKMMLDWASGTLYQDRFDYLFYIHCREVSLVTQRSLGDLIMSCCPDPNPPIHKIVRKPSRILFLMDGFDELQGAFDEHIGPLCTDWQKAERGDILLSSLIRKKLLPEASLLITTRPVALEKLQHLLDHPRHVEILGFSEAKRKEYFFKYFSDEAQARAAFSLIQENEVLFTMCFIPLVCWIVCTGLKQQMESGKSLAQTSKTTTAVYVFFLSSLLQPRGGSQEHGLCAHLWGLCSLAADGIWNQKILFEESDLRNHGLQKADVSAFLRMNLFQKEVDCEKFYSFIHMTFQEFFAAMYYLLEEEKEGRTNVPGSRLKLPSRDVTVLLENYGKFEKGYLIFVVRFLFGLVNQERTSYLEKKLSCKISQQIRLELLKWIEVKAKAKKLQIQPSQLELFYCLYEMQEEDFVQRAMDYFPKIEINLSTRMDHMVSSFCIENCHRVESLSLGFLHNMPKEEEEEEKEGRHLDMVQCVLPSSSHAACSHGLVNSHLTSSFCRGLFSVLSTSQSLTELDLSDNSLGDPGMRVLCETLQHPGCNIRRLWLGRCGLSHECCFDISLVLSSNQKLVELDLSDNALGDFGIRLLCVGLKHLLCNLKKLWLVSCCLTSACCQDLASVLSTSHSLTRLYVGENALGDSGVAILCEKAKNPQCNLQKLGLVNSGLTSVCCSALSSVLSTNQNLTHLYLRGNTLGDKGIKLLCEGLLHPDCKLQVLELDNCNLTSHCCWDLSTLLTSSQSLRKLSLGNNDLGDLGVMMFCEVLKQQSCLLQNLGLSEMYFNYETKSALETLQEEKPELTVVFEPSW
T2 sequence (Q12809 whole entry): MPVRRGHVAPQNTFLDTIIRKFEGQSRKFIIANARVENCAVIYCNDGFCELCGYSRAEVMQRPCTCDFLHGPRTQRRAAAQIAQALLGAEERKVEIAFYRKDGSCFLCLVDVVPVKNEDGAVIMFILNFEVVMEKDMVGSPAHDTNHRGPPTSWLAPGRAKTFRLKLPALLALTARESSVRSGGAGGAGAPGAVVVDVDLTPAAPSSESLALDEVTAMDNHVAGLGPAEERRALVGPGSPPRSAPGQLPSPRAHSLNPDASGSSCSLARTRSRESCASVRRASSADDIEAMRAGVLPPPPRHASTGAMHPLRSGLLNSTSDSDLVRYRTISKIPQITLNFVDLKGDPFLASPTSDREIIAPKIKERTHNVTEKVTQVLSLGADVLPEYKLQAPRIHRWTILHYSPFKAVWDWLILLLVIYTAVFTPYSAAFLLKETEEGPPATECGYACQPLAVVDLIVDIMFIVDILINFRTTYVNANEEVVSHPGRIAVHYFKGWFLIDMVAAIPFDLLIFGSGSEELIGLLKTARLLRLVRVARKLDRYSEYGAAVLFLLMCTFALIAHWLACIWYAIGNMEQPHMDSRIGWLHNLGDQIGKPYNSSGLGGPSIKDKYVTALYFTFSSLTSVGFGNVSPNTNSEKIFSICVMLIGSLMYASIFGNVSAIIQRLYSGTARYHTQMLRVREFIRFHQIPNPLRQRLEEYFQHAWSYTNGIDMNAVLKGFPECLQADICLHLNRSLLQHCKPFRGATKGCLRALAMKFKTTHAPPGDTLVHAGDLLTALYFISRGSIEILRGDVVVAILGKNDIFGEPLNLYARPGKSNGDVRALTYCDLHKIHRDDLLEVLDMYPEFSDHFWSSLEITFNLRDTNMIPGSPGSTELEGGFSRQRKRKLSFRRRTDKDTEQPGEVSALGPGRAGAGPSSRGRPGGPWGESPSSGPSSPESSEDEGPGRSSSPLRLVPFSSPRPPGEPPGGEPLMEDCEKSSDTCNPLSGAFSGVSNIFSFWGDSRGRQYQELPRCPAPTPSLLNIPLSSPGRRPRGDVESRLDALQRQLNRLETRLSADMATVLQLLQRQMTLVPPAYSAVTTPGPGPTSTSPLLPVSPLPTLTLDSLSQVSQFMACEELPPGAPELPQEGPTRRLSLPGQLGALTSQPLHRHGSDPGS

O[C@@H]1CCCC[C@H]1Nc1nnc(-c2ccc3cc[nH]c3c2)c2ccncc12 (racemic) [Example 3, rac-(1R,2R)-2-[[1-(1H-Indol-6-yl)pyrido[3,4-d]pyridazin-4-yl]amino]cyclohexanol]
IC50 (NLRP3 [1]): 108 nM | IC50 (NLRP3 [2]): 99 nM

Oc1c(-c2nnc(NCC3CCOC3)c3cnccc23)ccc2c1CCO2 (racemic) [Example 5, 5-[4-[[rac-(3S)-Tetrahydrofuran-3-yl]methylamino]pyrido[3,4-d]pyridazin-1-yl]-2,3-dihydrobenzofuran-4-ol]
IC50 (NLRP3 [1]): 37 nM | IC50 (NLRP3 [2]): 38 nM

Oc1c(-c2nnc(N[C@H]3CCCC[C@@H]3O)c3cnccc23)ccc2c1CCO2 (relative stereo) [Example 2B, 5-[4-[[rel-(1S,2S)-2-Hydroxycyclohexyl]amino]pyrido[3,4-d]pyridazin-1-yl]-2,3-dihydrobenzofuran-4-ol]
IC20 [3]: > 10000 nM

Fc1c[nH]c2cc(-c3nnc(NCC4CCOC4)c4cnccc34)ccc12 (single isomer, unassigned) [Example 4A]
IC50 (NLRP3 [2]): 134 nM

Fc1c[nH]c2cc(-c3nnc(NCC4CCOC4)c4cnccc34)ccc12 (single isomer, unassigned) [Example 4B]
IC50 (NLRP3 [2]): 211 nM

Oc1c(-c2nnc(NCC3CCOC3)c3cnccc23)ccc2c1CCO2 (single isomer, unassigned) [Example 5A]
IC50 (NLRP3 [1]): 32 nM | IC50 (NLRP3 [2]): 29 nM

Oc1c(-c2nnc(NCC3CCOC3)c3cnccc23)ccc2c1CCO2 (single isomer, unassigned) [Example 5B]
IC50 (NLRP3 [1]): 36 nM | IC50 (NLRP3 [2]): 64 nM

Oc1c(-c2nnc(NCC3CCCO3)c3cnccc23)ccc2c1CCO2 (single isomer, unassigned) [Example 6A]
IC50 (NLRP3 [1]): 47 nM | IC50 (NLRP3 [2]): 58 nM

Oc1c(-c2nnc(NCC3CCCO3)c3cnccc23)ccc2c1CCO2 (single isomer, unassigned) [Example 6B]
IC50 (NLRP3 [1]): 59 nM | IC50 (NLRP3 [2]): 63 nM

O=[N+]([O-])C=Cc1ccc2c(c1)OCO2 [3,4-methylenedioxy-β-nitrostyrene]
NLRP3 inhibition, potency (NLRP3 [4]): limited potency | NLRP3 inhibition, specificity (NLRP3 [4]): nonspecific

COCc1cc2c(c(O)c1-c1nnc(N[C@@H]3CCCC[C@H]3O)c3cnccc13)CCO2 [Example 8, 5-[4-[[(1R,2R)-2-Hydroxycyclohexyl]amino]pyrido[3,4-d]pyridazin-1-yl]-6-(methoxymethyl)-2,3-dihydrobenzofuran-4-ol]
IC50 (NLRP3 [2]): 21 nM

Oc1c(-c2nnc(N[C@H]3CC[C@H](O)CC3)c3cnccc23)ccc2c1CCO2 [Example 9, trans-5-[4-[(4-Hydroxycyclohexyl)amino]pyrido[3,4-d]pyridazin-1-yl]-2,3-dihydrobenzofuran-4-ol]
IC50 (NLRP3 [1]): 43 nM | IC50 (NLRP3 [2]): 56 nM

Oc1c(-c2nnc(N[C@H]3CC[C@@H](O)CC3)c3cnccc23)ccc2c1CCO2 [Example 11, cis-5-[4-[(4-Hydroxycyclohexyl)amino]pyrido[3,4-d]pyridazin-1-yl]-2,3-dihydrobenzofuran-4-ol]
IC50 (NLRP3 [1]): 51 nM | IC50 (NLRP3 [2]): 57 nM

Oc1c(-c2nnc(N[C@@H]3CCOC[C@@H]3O)c3cnccc23)ccc2c1CCO2 [Example 15, 5-[4-[[(3R,4R)-3-Hydroxytetrahydropyran-4-yl]amino]pyrido[3,4-d]pyridazin-1-yl]-2,3-dihydrobenzofuran-4-ol]
IC20 [3]: > 10000 nM

COc1ccc(Cl)cc1C(=O)NCCc1ccc(S(=O)(=O)NC(=O)NC2CCCCC2)cc1 [Glyburide]
inhibition of IL-1β production in response to the activation of NLRC4 (NLRC4): not NLRC4 | inhibition of IL-1β production in response to the activation of NLRP1 (NLRP1): not NLRC4 or NLRP1

C[S+](C)[O-] [dimethyl sulfoxide (DMSO), dimethyl sulfoxide]
NLRP3 inhibition, potency (NLRP3 [4]): limited potency | NLRP3 inhibition, specificity (NLRP3 [4]): nonspecific

C=C1C(=O)O[C@@H]2[C@H]3O[C@]3(C)CC/C=C(\C)CC[C@@H]12 [parthenolide]
NLRP3 inhibition, potency (NLRP3 [4]): limited potency | NLRP3 inhibition, specificity (NLRP3 [4]): nonspecific

anakinra: recombinant IL-I receptor antagonist
success in the treatment of CAPS (CAPS): proven successful in the treatment of CAPS

canakinumab: neutralizing IL-1β antibody
success in the treatment of CAPS (CAPS): proven successful in the treatment of CAPS

rilonacept
success in the treatment of CAPS (CAPS): proven successful in the treatment of CAPS
